Laboratory results reported in patent publication US5872118A, “Bicyclic amide derivatives and their use as muscle relaxants” (Glaxo Wellcome Inc., priority 1993, dated 1999).
Read-outs that look alike come from different tables or passages of the source.

Columns and labels:
[1] = single dose oral toxicity; assay type: in vivo, male CD-1 mice; details: mouse, in vivo; single oral gavage, non-fasted male CD-1 mice, seven days; read-out: maximum tolerated dose
Description: (§1) Single doses (15, 45, 100 or 250 mg/kg) were administered by oral gavage to groups of four non-fasted male CD-1 mice (Charles River).
(§2) Single doses (5, 15, 40, 100, 250, 500 or 1000 mg/kg) were administered by oral gavage to groups of four non-fasted male CD-1 mice (Charles River).

CD-1 mice = experiment: single dose oral toxicity; assay type: in vivo, male CD-1 mice; details: within the seven days post dosing, single oral gavage, male CD-1 mice
Description: as §1, §2

[2] = test system: morphine-induced Straub tail; experiment: Straub tail test (central muscle relaxant activity); assay type: in vivo; details: Mus musculus, 1 h; mice, oral gavage 60 min prior to scoring; dose preventing Straub tail in 50% of mice; read-out: Straub Tail p.o. ED50
Description: Central muscle relaxant activity of compounds of formula (I) was determined using a Straub tail test based on that described by K. O. Ellis and J. F. Carpenter, Neuropharrnacol, 13, 211 (1974).
The Straub tail test result is reported as an ED50 in mg/kg. The ED50 is defined as the dose of compound administered, which prevents Straub tail in 50% of mice. The compound is administered by oral gavage 60 min. prior to scoring.
(§3) Antagonism of morphine-induced Straub tail reflects central muscle relaxant efficacy while failure in the rotorod test reflects sedation and incoordination. Determination of the ratio of rotorod failure to antagonism of morphine-induced Straub tail is a means of assessing side effect liability of central muscle relaxants (G. D. Novak, Drug Dev. Res., 2, 383 (1982).

[3] = mouse rotorod test (sedation and incoordination); details: in vivo, po; for selectivity ratio: ratio of rotorod ED50 to Straub tail ED50, p.o.
Description: The side effect potential of these compounds was determined using the mouse rotorod test as described by G. D. Novak and J. M. Zwolshei, J.Pharmacological. Methods, 10, 175 (1983). Rotorod result is reported as ED50 in mg/kg. The ED50 is the dose which causes 50% of the animals to fail to maintain position on a cylinder rotating at 11 r.p.m.
as §3

[4] = test system: carrageenan-induced cell accumulation and edema formation within the rat pleural cavity; experiment: carrageenan pleurisy assay (anti-inflammatory activity); assay type: in vivo, rat (Lewis male); details: po, fasted rats, 0.5 hr before carrageenan, 4 hr
Description: The rats used in these experiments were Lewis males, weighing 160-180 g, assigned to groups consisting of 5 animals. Test compounds were given to fasted rats by oral gavage 0.5 hr prior to intrapleural injection of 50 mg carrageenan. After 4 hr, the pleural exudate was collected and the edema volume and cell number were determined. ED50 values were estimated by linear regression analysis, and represent the doses at which a given drug produced 50% inhibition of carrageenan-induced cell accumulation and edema formation within the rat pleural cavity.

[5] = test system: algesic response to mechanical force clamp on the phalanges; experiment: phalanges algesic assay (strong analgesia); assay type: in vivo, rat (Lewis male); details: Rattus norvegicus, po, 1 h; p.o., fasted rats, one hour after dosing; 50% inhibition of latency response
Description: The rats used in these studies were Lewis male weighing 160-180 g and assigned to groups of 5-6 animals. The phalanges algesic assay is an algesic test (no hyperalgesia) in which test compounds were given to fasted rats by oral gavage. One hour later an F-shaped mechanical force clamp was applied to the phalanges of one hind limb which initiated an algesic response(vocalization or flight). Latency (seconds) to the algesic response was determined with 3 seconds maximum allowed time. ED50 values were estimated by linear regression analysis and represent the dose at which a given compound extended the latency response to produce 50% inhibition using the formula: (3 sec.-Control Latency)-(3 sec.-Test Latency)/3 sec.-Control Latency×100.

[6] = test system: trypsin-induced rat hind limb hyperalgesia; experiment: trypsin-induced rat hind limb hyperalgesia assay (mild analgesia); assay type: in vivo, rat (Lewis male); details: po, fasted rats, 0.5 hours prior to trypsin, 50% inhibition of latency response
Description: The rats used in these studies were Lewis male, weighing 160-180 g. and assigned to groups consisting of 5-6 animals. Test compounds were given to fasted rats by oral gavage 0.5 hours prior to the subplantar injection of […] trypsin in one hind limb. One hour later the rats were evaluated for hyperalgesia using an F-shaped mechanical force clamp on the injected hind limb metatarsal area. Latency (seconds) to the algesic response (vocalization or flight) was determined, with 4 seconds being the maximum latency allowed. ED50 values were estimated by linear regression analysis and represent the dose at which a given drug extended the latency response to produce 50% inhibition using the formula: (4 sec.-Control Latency)-(4 sec.-Test Latency)/4 sec.-Control Latency×100.

[7] = test system: established adjuvant-induced polyarthritis; experiment: established adjuvant-induced polyarthritis; assay type: in vivo, rat (female Lewis); details: 50 mg/kg b.i.d.
Description: The procedures for this test have been described in detail by R. Vinegar, J. F. Truax, J. L. Selph, A. Lea, and P. R. Johnston (J. Immunopharmacol. 1:497-520, 1979). The rats used in these studies were female Lewis rats whose starting weight was 190±10 g. Arthritic rats were assigned to treatment groups consisting of six animals each. Fed rats were dosed by oral gavage starting on day 21 post adjuvant injection; therapy was continued until day 28. The incidence and severity of arthritic lesions were assessed using a modification of the scoring procedure described by H. L. F. Currey and M. Ziff (J. Exp. Med. 121:185-203, 1968). Briefly, the bilateral joints were scored for erythema, edema, and ankylosis as outlined below:
The maximal possible score per rat was 40. Experimental results were analyzed by one-way ANOVA, followed by post hoc comparisons of treatment effects versus untreated arthritic control using the Newman-Keuls test. The percent inhibition of each drug-treated group was calculated from the mean relative to the arthritic control.

[8] = test system: maximal electroshock-induced convulsions; experiment: protection against maximal electroshock-induced convulsions; assay type: in vivo; details: ip; rat, i.p.; prevention of hind limb extension in 50% of animals; read-out: ED50 MES (maximal electroshock)
Description: Anticonvulsant activity of compounds of formula (I) was determined using a method described by Mehta et al., J.Med.Chem., 24, 465 (1981).
The anticonvulsant activity is reported as an ED50 in mg/kg. The ED50 for protection against maximal electroshock-induced convulsions was the dose which prevented hind limb extension in 50% of the animals. The ED50 for protection against Metrazol-induced convulsions was the dose which prevented convulsions in 50% of the animals.

punished responding = experiment: anxiolytic activity, punished responding (Geller and Seifter); assay type: in vivo; details: Rattus norvegicus, po; rats, p.o.; lowest dose producing significant increase in punished responding; read-out: MED (Minimal Effective Dose)
Description: Anxiolytic activity of compounds of formula (I) was measured using the method of Geller and Seifter, J.Psychopharmacolgia, 1, 482 (1960) as modified by Pollard and Howard, Psychopharmacology, 62, 117 (1979). Clinically efficacious anxiolytics increase punished responding. The anxiolytic activity of the compound is reported as the lowest dose necessary to produce a significant increase in punished responding in rats(MED).

[9] = 50% inhibition of cell accumulation, read-out: ED50 Cells
[10] = 50% inhibition of edema formation, read-out: ED50 Edema

SMILES | MTD at 168 h [1] [mg/kg] | deaths (CD-1 mice) | ED50 [2] [mg/kg] | TD50 [3] [mg/kg] | selectivity ratio [3] | ED50 [4, 9] [mg/kg] | ED50 [4, 10] [mg/kg] | ED50 [5] [mg/kg] | ED50 [6] [mg/kg] | arthritic scores ([7]; days 22, 25, and 27, oral gavage) | Spleen weight ([7]; postmortem on day 27) | plasma fibrinogen ([7]; postmortem on day 27) | ED50 [8] [mg/kg] | minimal effective dose (punished responding) [mg/kg]
NC(=O)/C=C1\CCc2ccc(F)cc21 [Example 1, (E)-2-(6-Fluoro-1-indanylidene)acetamide] | > 250 | no deaths | 51 | 88 | 1.7 | 21 | 20 |  |  |  |  |  |  | 
NC(=O)/C=C1\CCc2c(F)cc(F)cc21 [Example 5, (E)-2-(4,6-difluoro-1-indanylidene)acetamide] | > 1000 | no deaths | 54 | 79 | 1.5 | 16 | 12 | 22 | 4 | significantly (p<0.01) lowered | significantly reduced (p<0.01) | significantly reduced (p<0.01) |  | 
O=C(/C=C1\CCCc2ccc(F)cc21)NC1CC1 [Example 13, (E)-N-Cyclopropyl-2-(7-fluoro-1,2,3,4-tetrahydro-1-naphthylidene)acetamide] |  |  |  |  |  |  |  |  |  |  |  |  | 25 | 3.13
